Measured values from patent publication US20260263638A1, “COMPOSITIONS AND METHODS TO IMPROVE RNA PROPERTIES USING BASE, PHOSPHODIESTER LINKAGE, SUGAR BACKBONE, AND CAP MODIFICATIONS” (The Broad Institute, Inc., priority 2023, published 2026).
“Also recorded” adds a separate entry of the source. Strand notation (5' to 3'): a small letter for the sugar, then the base; units joined by * are phosphorothioate-linked, units joined directly phosphodiester-linked; [ ] holds rarer units or linkages, { } end groups; capitals alone tell only the bases. [5OctU] = 5-octadiynyl-2'-deoxyuridine, alkyne click handle; d = 2'-deoxy (DNA); {3P} = phosphate; r = 2'-OH (RNA); {P} = phosphate

Assays:
[1] = system: rabbit reticulocyte lysate (RRL) in vitro translation system; assay: In vitro translation assay in rabbit reticulocyte lysate with or without 4EGI-1; type: biochemical
Method: Firefly luciferase reporter mRNA with one cap and Nanoluc mRNA with two caps were synthesized according to protocol mentioned above. The in vitro translation was conducted using Rabbit Reticulocyte Lysate (Nuclease-treated) [Promega, L4960] according to manufacturer's protocol with some modifications. 30% or 40% of rabbit reticulocyte lysate, 4% of SUPERaseIn RNase Inhibitor, amino acid mixture and indicated mRNA were added to the reaction with 4EGI-1 inhibitor (600 μM) or DMSO as control in 50 μL reaction. The reactions were incubated at 30° C. for an hour. Then, […] of the reaction mixture was diluted by 10-fold with PBS. The fluorescence of firefly luciferase was measured with Dual-Glo Luciferase Assay System [Promega, E2920] and the fluorescence of Nanoluc was measured with Nano-Glo Luciferase Assay System [Promega, N1110] according to manufacturer's protocol.

[2] = In vivo imaging of NanoLuc after retro-orbital mRNA-LNP injection; conditions: mice; for NLuc translation of QRNA relative to uncapped m1ψ-circRNA precursor (circRNA-OU): LNP retro-orbital
Method: All animal procedures followed animal care guidelines approved by the Institutional Animal Care and Use Committee (IACUC) of the Broad Institute of MIT and Harvard under animal protocol #0255-08-19. Animal experiments were conducted in compliance with IACUC policies and NIH guidelines. The BALB/cj (male, 6~8 weeks old) mice used for in vivo NanoLuc assay in this study were purchased from The Jackson Laboratory (JAX). The C57BL/6 mice (female, 7 weeks old), used for hEPO assay in this study were purchased from The Jackson Laboratory (JAX).
mRNA diluted in 50 mM citrate buffer (pH 4) and lipid mix (37.5 mM in ethanol) containing 50 mol % SM-102, 10 mol % DSPC, 38.5 mol % Cholesterol, and 1.5 mol % DMG-PEG2000 were assembled into LNP using a NanoAssemblr Spark instrument [Precision Nanosystems]. Upon formulation, mRNA-LNPs were diluted in 12 mL 1×PBS solution and the buffer was exchanged by concentrating with a 30 kDa spin filter [MilliporeSigma, UFC901008] to remove residue ethanol. Concentrations and encapsulation efficiency of mRNA were determined using Quant-it RiboGreen RNA Assay Kit [ThermoFisher, R11490]. 1 μg NanoLuc or hEPO mRNA-LNP in a total volume of 100 μL was injected through retro orbital injection into each mouse. Four mice were used for each condition of each experiment (NanoLuc imaging, hEPO ELISA, and reticulocyte counting). For NanoLuc imaging, PBS injection was used as negative control. For hEPO/reticulocyte experiments, poly(C)-LNP complex was used as negative control.
In vivo activity of NanoLuc was measured using a Competent IVIS-Perkin Elmer IVIS Spectrum CT System [Perkin Elmer]. At each time point, mice were anesthetized with isoflurane. The fluorofurimazine substrate with poloxamer-407 [Promega, CS320501] was freshly reconstituted in PBS to a final concentration of ~5.1 mM and injected intraperitoneally (i.p.) into the mice at a dose of ~22 nmol per gram body weight. Mice were imaged 5 mins post injection using auto exposure settings. The luminescent activity was quantified using Aura 4.0 imaging software. The background was determined by including mice injected with poly C-LNP negative control and subtracted from each measurement.

[3] = system: HeLa cells; assay: NLuc bioluminometry of circRNA/QRNA (Fluc transfection control); type: cell-based
Method: (§1) Synthetic linear mRNA encoding NanoLuciferase (NLuc) was prepared from DNA template by IVT with 100% m1ψ substitution. The triphosphorylated mRNA after IVT was then treated with Calf Intestinal Alkaline Phosphatase (CIAP) to yield 5′/3′-hydroxyl mRNA. A chemically synthesized oligonucleotide with a branched m7G cap and 5′/3′-phosphates was then ligated to the 5′/3′-hydroxyl mRNA by T4 RNA ligase, which ligates the 5′-phosphate on the oligo and 3′-hydroxyl of the mRNA. The ligation product was then further treated with RtcB ligase, which ligates the 5′-hydroxyl and 3′-phosphate ends to enable intramolecular circularization. […] Using one primer only produced no fragmentation but only linearization, confirming successful circularization. Using double primers produced fragments flanking the branched region, where branched topology was confirmed by gel shift. […] NLuc bioluminometry was measured 8 hrs post transfection and normalized Firefly luciferase as transfection control. Mean±s.e.m., n=3. P values were calculated by ordinary one-way ANOVA (alpha=0.05), with multiple comparisons to circ-NLuc with only 5-octadiynyl deoxyuridine (OU) handle (construct 45). ****P<0.0001, n.s. P>0.05. […] QRNA with m7G (construct 48) was compared. n=3, biological replicates. Mean±sem. P values were calculated by ordinary one-way ANOVA with multiple comparisons against construct 61 without any cotransfected capped oligos (Dunnett's multiple comparison test). […] P values were calculated by unpaired two-sided t-test.
HeLa cells [ATCC, CCL-2] were maintained in DMEM culture media [ThermoFisher Scientific, 119951] containing 10% FBS and 1% penicillin-streptomycin [ThermoFisher Scientific, 15070063] in a 37° C. incubator with 5% CO2 and passaged at a ratio of 1:10 every 3 days. […] Cells were lysed and luciferase activity was measured using the Promega Dual Glo Luciferase Assay System [Promega, E2920]. Firefly luminescence/Renilla luminescence for each well was used as mRNA activity readout. […]

[4] = system: HeLa cells; assay: Two-ORF FLuc/3xHiBiT reporter bioluminometry; type: cell-based; conditions: 8 hrs post transfection
Method: as §1
Finally, Applicant evaluated if the branched cap on the QRNA has the ability to initiate translation of open reading frames (ORFs) upstream of it. […] FLuc and HiBiT bioluminometry were evaluated 8 hrs post transfection.
Lastly, to test whether the branched cap could drive the translation for upstream AUG via either proximity looping or bidirectional ribosome scanning to opt for upstream open reading frames (ORFs), Applicant generated a two-ORF reporter mRNA that contained a 5′ full-length FLuc ORF and a 3′ 3×HiBIT ORF with an out-of-frame start codon from the FLuc ORF (construct 62). […]

[5] = target: eIF4E (UniProt P06730 P06730:1-217); assay: EMSA; 50 mM KCl, 10 mM Tris-HCl pH 7.6, 1 mM DTT, 4 C; conditions: tags: His tag, Cayman Chemical 25150
eIF4E, sequence (P06730 whole entry, one chain of several): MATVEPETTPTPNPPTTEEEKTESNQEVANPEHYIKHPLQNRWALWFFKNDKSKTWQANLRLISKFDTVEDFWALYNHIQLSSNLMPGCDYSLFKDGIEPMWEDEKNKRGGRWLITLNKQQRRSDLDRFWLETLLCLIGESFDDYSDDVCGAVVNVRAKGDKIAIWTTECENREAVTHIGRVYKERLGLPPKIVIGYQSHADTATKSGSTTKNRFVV
Method: Capped oligonucleotides were labeled on the 3′ end using AF647 labeled cytidine-5′-phosphate-3′-(6-aminohexyl) phosphate [Jena Bioscience, NU-1706-AF647] and T4 RNA ligase ligated AF647-labeled cytidine onto the capped oligos using manufacturer's protocols. Oligos were then incubated in the binding buffer (1 mM DTT, 50 mM KCl, 10 mM Tris-HCl (pH 7.6), Novex Hi-Density TBE Sample Buffer [Invitrogen, LC6678]) with varying eIF4E-His [Cayman Chemical Inc, 25150] concentrations prepared by sequential dilutions from the stock solution. The oligos and […] were incubated at 4° C. for 30 mins and characterized by EMSA with Novex TBE Gels, 4-20% [Invitrogen, EC6225BOX] at 4° C. AF647 labeled oligos were imaged with BioRad ChemiDoc MP Imaging System [12003154] and band intensities were quantified using ImageJ. For Kd calculation, the proportions of bound were plotted against eIF4E concentration using GraphPad Prism (Specific binding with Hill slope).
To gain insights into the mechanism of how the topologically branched internal cap initiates mRNA translation, Applicant used fluorophore-labeled mono- or dual-capped oligonucleotides and measured their affinity to eIF4E through EMSA.

Molecule: O=C(O)C(Cc1ccccc1[N+](=O)[O-])=NNc1nc(-c2ccc(Cl)c(Cl)c2)cs1 (mixture of isomers) [4EGI-1]
- Translation of mono- and dual-capped mRNA in RRL ([1]; 600 μM 4EGI-1 coupled with reduction of RRL % to 30%): almost completely halted translation
- Translation of mono- and dual-capped mRNA in RRL in presence of 4EGI-1 ([1]; 4EGI-1 600 μM or DMSO): inhibited translation of dual-capped mRNA; also recorded: significantly reduced

Molecule: construct 49: m1ψ NLuc QRNA with LNAm7G branched cap (SEQ ID NO: 115) ({P}-rArArArArArArAd[5OctU]rArArArArArA-{3P}; ligated into m1Ψ circRNA, LNA-m7G-capped LNA/2'-OMe branch oligo clicked at octadiynyl-dU)
- NLuc translation of QRNA relative to uncapped m1ψ-circRNA precursor (circRNA-OU) ([2]; 8 hrs): 17 ×
- NLuc translation of QRNA relative to uncapped m1ψ-circRNA precursor (circRNA-OU) ([2]; 24 hrs): 30 ×
- NLuc translation of QRNA relative to uncapped m1ψ-circRNA precursor (circRNA-OU) ([2]; 48 hrs): 59 ×
- Time of peak NLuc bioluminescence / translation in vivo ([2]; LNP, retro-orbital injection): 24 h
- NLuc protein production increase of modified circRNA/QRNA ([3]; HeLa cells, 8 hrs post transfection, compared to circ-NLuc with only OU handle (construct 45)): up to 144 fold

Molecule: construct 64: two-ORF FLuc-3×HiBiT QRNA with LNAm7G branched cap (SEQ ID NO: 119) ({P}-rArArArArArArAd[5OctU]rArArArArArA-{3P}; ligated into circRNA, LNA-m7G-capped LNA/2'-OMe branch oligo clicked at octadiynyl-dU, further chemistry not fully specified)
- FLuc ORF expression, QRNA vs circRNA (uncapped control) [4]: 166 fold
- HiBiT ORF expression, QRNA vs circRNA (uncapped control) [4]: 18.7 fold
- Translation of upstream HiBiT and downstream FLuc ORFs, result in words [4]: both the HiBiT and FLuc ORFs were enhanced

B1: 1xm7G-OU (28) (ssRNA)
RNA: AGAUAAAUAAAAAA
modifications: 5' m7G cap; 5-octadiynyl-dU at position 8
- Kd ([5]; label: 3' AF647-cytidine): 2210 nM

B2: 2xLNAm7G dual-capped branched (42) (ssRNA)
RNA 1: AGAUAAAUAAAAAA
RNA 2: AGAGAUAA
modifications: LNA-m7G cap on both 5' ends; second strand 3'-azide clicked to 5-octadiynyl-dU at position 8 of first strand
- Kd ([5]; label: AF647-cytidine, branched): 1280 nM

B3: construct S19: Bn7G-capped Nluc QRNA with globin UTRs, TGT/preQ1-azide labeled, uridine-containing (SEQ ID NO: 133) (nucleic acid)
chain: UAGUCUCGAGCUGGUACUGCAUGCACGCAAUGCUAGCUGCCCCUUUCCCGUCCUGGGUACCCCGAGUCUCCCCCGACCUCGGGUCCCAGGUAUGCUCCCACCUCCACCUGCCCCACUCACCACCUCUGCUAGUUCCAGACACCUCCCAAGCACGCAGCAAUGCAGCUCAAAACGCUUAGCCUAGCCACACCCCCACGGGAAACAGCAGUGAUUAACCUUUAGCAAUAAACGAAAGUUUAACUAAGCUAUACUAACCCCAGGGUUGGUCAAUUUCGUGCCAGCCACACCCUGGAGCUAGCAAAAAAAAAAAAAAAAAAAAAAAAAAAAAAAAAAAAAAACUCAGUAGAUGUUUUCUUGGGUUAAUUGAGGCCUGAGUAUAAGGUGACUUAUACUUGUAAUCUAUCUAAACGGGGAACCUCUCUAGUAGACAAUCCCGUGCUAAAUUGUAGGACUGCCCUUUAAUAAAUACUUCUAUAUUUAAAGAGGUAUUUAUGAAAAGCGGAAUUUAUCAGAUUAAAAAUACUUUCUCUAGAGUCGACCUGCAG
modifications: Bn7G cap; TGT/preQ1-azide label
- Nluc translation of QRNA vs circRNA, result in words ([3]; circRNA with and without IRES, uridine-containing): translated much more efficiently than its circRNA counterpart
